From the NIST ThermoML archive (doi:10.1007/s10765-011-0995-x)

Key:
[1] = refractive index (Na D-line) (dimensionless); xn = mol fraction of the nth substance listed; settings: 101 kPa, Liquid, Standard Abbe refractometry
[2] = xn = mol fraction of the nth substance listed; settings: 101 kPa, Liquid; for speed of sound: Pulse-echo method

Cc1cccc(Cl)c1 [3-chlorotoluene] + CCCCCCCCCCO
Settings | mass density, [2] [kg/m3] | refractive index, [1] | speed of sound, [2] [m/s] | viscosity, [2] [mPa·s]
298.15 K, x1 = 0.0745 | 837.98 | 1.4371 | 1371.6 | 10.08
298.15 K, x1 = 0.1337 | 847.61 | 1.4394 | 1364.4 | 8.723
298.15 K, x1 = 0.2017 | 859.18 | 1.4424 | 1356 | 7.28
298.15 K, x1 = 0.2741 | 872.19 | 1.446 | 1347 | 5.927
298.15 K, x1 = 0.3471 | 886.08 | 1.4501 | 1338 | 4.762
298.15 K, x1 = 0.4139 | 899.55 | 1.4545 | 1329.9 | 3.862
298.15 K, x1 = 0.4616 | 909.68 | 1.4579 | 1324.3 | 3.322
298.15 K, x1 = 0.5532 | 930.44 | 1.4653 | 1314.9 | 2.496
298.15 K, x1 = 0.6282 | 948.88 | 1.4723 | 1308.1 | 1.985
298.15 K, x1 = 0.6772 | 961.72 | 1.4772 | 1304.1 | 1.724
298.15 K, x1 = 0.7447 | 980.55 | 1.4847 | 1300 | 1.429
298.15 K, x1 = 0.8245 | 1004.78 | 1.4947 | 1296.6 | 1.17
298.15 K, x1 = 0.8876 | 1025.62 | 1.5034 | 1296.2 | 1.016
298.15 K, x1 = 0.9433 | 1045.43 | 1.5117 | 1297.1 | 0.906
298.15 K, x1 = 1 | 1067.29 | 1.5207 | 1298.3 | 0.798
303.15 K, x1 = 0.0745 | 834.43 | 1.4353 | 1355.2 | 8.289
303.15 K, x1 = 0.1337 | 844.01 | 1.4378 | 1347 | 7.171
303.15 K, x1 = 0.2017 | 855.5 | 1.4408 | 1337.4 | 6.013
303.15 K, x1 = 0.2741 | 868.42 | 1.4445 | 1327.4 | 4.905
303.15 K, x1 = 0.3471 | 882.21 | 1.4488 | 1318 | 3.977
303.15 K, x1 = 0.4139 | 895.58 | 1.4533 | 1309.9 | 3.261
303.15 K, x1 = 0.4616 | 905.65 | 1.4567 | 1304.4 | 2.821
303.15 K, x1 = 0.5532 | 926.26 | 1.4641 | 1295.5 | 2.161
303.15 K, x1 = 0.6282 | 944.59 | 1.4711 | 1289.3 | 1.744
303.15 K, x1 = 0.6772 | 957.36 | 1.4761 | 1285.8 | 1.523
303.15 K, x1 = 0.7447 | 976.11 | 1.4835 | 1281.9 | 1.282
303.15 K, x1 = 0.8245 | 1000.26 | 1.4932 | 1278.3 | 1.063
303.15 K, x1 = 0.8876 | 1021.06 | 1.5017 | 1276.7 | 0.934
303.15 K, x1 = 0.9433 | 1040.84 | 1.5099 | 1276.5 | 0.844
303.15 K, x1 = 1 | 1062.81 | 1.5189 | 1280.1 | 0.746
308.15 K, x1 = 0.0745 | 830.88 | 1.4334 | 1335 | 6.908
308.15 K, x1 = 0.1337 | 840.4 | 1.436 | 1325.8 | 6.001
308.15 K, x1 = 0.2017 | 851.82 | 1.4391 | 1315.4 | 5.022
308.15 K, x1 = 0.2741 | 864.64 | 1.443 | 1305 | 4.123
308.15 K, x1 = 0.3471 | 878.33 | 1.4473 | 1295.4 | 3.348
308.15 K, x1 = 0.4139 | 891.6 | 1.4518 | 1287.6 | 2.771
308.15 K, x1 = 0.4616 | 901.59 | 1.4553 | 1282.4 | 2.423
308.15 K, x1 = 0.5532 | 922.06 | 1.4628 | 1273.9 | 1.862
308.15 K, x1 = 0.6282 | 940.26 | 1.4697 | 1268.3 | 1.521
308.15 K, x1 = 0.6772 | 952.94 | 1.4747 | 1265.4 | 1.343
308.15 K, x1 = 0.7447 | 971.61 | 1.482 | 1261.9 | 1.142
308.15 K, x1 = 0.8245 | 995.7 | 1.4917 | 1258.4 | 0.96
308.15 K, x1 = 0.8876 | 1016.44 | 1.5 | 1257.5 | 0.851
308.15 K, x1 = 0.9433 | 1036.25 | 1.5082 | 1257.8 | 0.777
308.15 K, x1 = 1 | 1058.33 | 1.5169 | 1262.1 | 0.705
